pIC50: −log10 of the molar value.

In one assay the target is EZH2 Y641F (Homo sapiens (Human), UniProt Q15910, Y641F). Briefly: In vitro methyltransferase activity test (LANCE Ultra). Format: biochemical. The note with it: Recombinant PRC2 (EZH2-Y641F), 2.5 μM SAM/250 nM H3(1-50)K27me1, 3 hours, room temperature. (Time-resolved FRET reads energy transfer from a long-lived donor to a nearby acceptor.)
The next assay has as its system Pfeiffer cells. Put plainly: Cell proliferation test (Cell counting kit-8, 6 days). Format: cell-based. The note with it: Pfeiffer (CRL-2632) cells, culture for 6 days, viable cells by Cell counting kit-8. As to the method: The used cell lines Pfeiffer (CRL-2632), suDHL-6 (CRL-2959) and suDHL-10 (CRL-2963) were purchased from American Type Culture Collection (ATCC). All cell lines were cultured in RPMI-1640 medium (Gibco) containing 10% fetal bovine serum (Gibco). The cultured cells were collected by centrifugation and the cell density was measured on a CounterStar counter. Appropriate number of cells were then seeded in a 96-well culture plate and incubated overnight. Compounds to be tested were diluted by 8 gradient points in a ratio of 1:3 and added into the corresponding wells. After continuing to culture for 6 days, the number of viable cells was measured with Cell counting kit-8, and the absorbance value was read on Tecan infinite pro. The IC50 was calculated by fitting a four-parameter model in the XLfit software.
(In general: Tetrazolium dyes change colour on reduction, which living cells bring about.)

EZH2 Y641F, sequence (Q15910 whole entry Y641F): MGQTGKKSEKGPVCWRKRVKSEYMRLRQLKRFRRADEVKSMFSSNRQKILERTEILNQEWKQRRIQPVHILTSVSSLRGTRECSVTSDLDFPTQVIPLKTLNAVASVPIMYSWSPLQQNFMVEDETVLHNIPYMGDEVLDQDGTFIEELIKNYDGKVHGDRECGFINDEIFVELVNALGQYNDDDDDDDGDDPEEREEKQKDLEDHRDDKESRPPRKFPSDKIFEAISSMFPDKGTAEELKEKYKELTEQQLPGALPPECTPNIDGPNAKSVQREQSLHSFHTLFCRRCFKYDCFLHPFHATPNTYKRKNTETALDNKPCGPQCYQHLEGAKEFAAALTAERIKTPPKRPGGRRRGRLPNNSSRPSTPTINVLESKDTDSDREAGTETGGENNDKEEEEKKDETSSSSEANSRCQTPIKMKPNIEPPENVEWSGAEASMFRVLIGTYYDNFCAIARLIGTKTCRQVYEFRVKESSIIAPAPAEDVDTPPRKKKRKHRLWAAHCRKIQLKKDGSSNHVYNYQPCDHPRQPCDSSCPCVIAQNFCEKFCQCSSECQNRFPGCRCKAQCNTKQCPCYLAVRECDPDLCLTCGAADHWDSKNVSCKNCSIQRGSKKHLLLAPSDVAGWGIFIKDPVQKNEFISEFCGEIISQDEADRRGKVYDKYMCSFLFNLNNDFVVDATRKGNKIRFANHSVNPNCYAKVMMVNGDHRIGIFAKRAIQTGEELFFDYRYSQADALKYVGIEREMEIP
EZH2 Y641F, sequence (O75530 whole entry partner): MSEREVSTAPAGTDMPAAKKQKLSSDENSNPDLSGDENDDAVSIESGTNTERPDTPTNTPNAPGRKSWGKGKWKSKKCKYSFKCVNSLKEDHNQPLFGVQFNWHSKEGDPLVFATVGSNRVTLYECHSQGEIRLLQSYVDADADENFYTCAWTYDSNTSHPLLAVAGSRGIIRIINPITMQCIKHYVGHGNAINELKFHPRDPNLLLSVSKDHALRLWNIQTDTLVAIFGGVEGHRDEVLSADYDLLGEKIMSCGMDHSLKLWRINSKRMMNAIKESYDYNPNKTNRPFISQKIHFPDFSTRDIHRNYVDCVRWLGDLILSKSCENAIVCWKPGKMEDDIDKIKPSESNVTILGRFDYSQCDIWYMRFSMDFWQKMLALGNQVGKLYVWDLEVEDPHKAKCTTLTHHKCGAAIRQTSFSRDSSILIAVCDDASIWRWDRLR
EZH2 Y641F, sequence (Q15022 whole entry partner): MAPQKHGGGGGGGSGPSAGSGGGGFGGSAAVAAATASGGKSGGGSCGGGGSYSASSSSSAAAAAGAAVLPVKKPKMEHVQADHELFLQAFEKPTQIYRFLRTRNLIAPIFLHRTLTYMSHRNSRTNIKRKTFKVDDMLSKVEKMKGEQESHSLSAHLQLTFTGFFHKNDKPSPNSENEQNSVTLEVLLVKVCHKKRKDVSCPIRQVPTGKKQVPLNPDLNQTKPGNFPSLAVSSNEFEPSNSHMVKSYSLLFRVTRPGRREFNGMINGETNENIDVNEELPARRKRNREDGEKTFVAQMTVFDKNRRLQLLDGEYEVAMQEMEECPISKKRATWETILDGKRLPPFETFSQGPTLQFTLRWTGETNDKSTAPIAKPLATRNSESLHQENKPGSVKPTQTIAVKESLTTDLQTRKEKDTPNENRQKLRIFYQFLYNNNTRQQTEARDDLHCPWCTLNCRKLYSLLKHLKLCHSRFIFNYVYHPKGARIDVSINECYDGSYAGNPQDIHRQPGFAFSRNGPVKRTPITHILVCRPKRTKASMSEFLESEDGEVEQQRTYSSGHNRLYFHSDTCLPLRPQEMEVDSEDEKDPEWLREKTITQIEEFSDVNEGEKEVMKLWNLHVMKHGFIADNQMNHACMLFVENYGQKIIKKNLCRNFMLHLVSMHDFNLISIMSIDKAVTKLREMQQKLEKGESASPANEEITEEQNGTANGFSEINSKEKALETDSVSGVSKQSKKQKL
EZH2 Y641F, sequence (Q09028 whole entry partner): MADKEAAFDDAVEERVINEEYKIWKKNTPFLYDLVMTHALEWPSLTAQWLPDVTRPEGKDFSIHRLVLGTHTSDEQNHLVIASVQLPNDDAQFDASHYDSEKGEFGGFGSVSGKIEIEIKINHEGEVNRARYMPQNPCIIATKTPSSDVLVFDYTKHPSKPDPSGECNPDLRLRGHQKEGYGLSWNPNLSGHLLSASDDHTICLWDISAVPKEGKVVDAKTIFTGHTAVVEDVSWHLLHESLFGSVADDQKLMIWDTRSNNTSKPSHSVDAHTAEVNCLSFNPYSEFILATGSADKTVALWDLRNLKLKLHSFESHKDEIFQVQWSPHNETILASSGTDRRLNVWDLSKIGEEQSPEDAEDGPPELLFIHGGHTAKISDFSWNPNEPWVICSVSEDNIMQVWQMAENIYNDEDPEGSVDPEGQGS
EZH2 Y641F, sequence (Q6ZN18 whole entry partner): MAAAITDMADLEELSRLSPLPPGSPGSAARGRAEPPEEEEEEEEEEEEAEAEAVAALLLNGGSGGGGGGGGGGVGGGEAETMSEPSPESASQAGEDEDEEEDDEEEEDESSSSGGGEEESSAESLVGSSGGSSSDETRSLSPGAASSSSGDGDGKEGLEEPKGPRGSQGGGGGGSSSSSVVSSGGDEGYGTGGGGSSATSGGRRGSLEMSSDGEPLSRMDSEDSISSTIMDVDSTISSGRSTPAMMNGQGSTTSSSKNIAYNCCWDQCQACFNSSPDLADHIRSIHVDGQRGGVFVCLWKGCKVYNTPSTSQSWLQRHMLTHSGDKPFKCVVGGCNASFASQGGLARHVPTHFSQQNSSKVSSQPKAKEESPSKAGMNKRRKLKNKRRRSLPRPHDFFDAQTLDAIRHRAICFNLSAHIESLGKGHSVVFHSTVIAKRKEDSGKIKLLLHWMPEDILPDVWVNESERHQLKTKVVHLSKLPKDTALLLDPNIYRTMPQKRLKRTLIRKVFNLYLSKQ
Experimental for EZH2 Y641F: The detection system uses LANCEUltra system (Perkinelmer company). […] And then a buffer [20 mM Tris pH8.5, 2 mM MgCl2, 0.01% Tween-20, 1 mM TCEP] containing 2.5 μM SAM/250 nM H3 (1-50)K27me1 premixtures was added, thus the enzyme reaction was started at room temperature. After reacting for 3 hours, a test solution premixed with PLL, detection antibody and Ulight was added, and reacted for 1h at room temperature, then the fluorescence value was read on a Tecan infinite pro. IC50 was calculated by fitting a four-factor model in the XLfit software.

On to `C=CCC1(S(=O)(=O)n2cc(C)c3c(C(=O)NCc4c(OC)cc(C)[nH]c4=O)cc(-c4cnc(N5CC(F)C5)nc4)cc32)CC1` [Compound G-30], for which the negative logarithm of the IC50 (pIC50) (commonly the IC50 on a negative log10 scale, so that one unit is a factor of ten) is 8.05 at EZH2 Y641F and 7.01 with Pfeiffer cells.

For the compound `C=CCC1(S(=O)(=O)n2cc(C)c3c(C(=O)NCc4c(C)cc(C)[nH]c4=O)cc(-c4ccc(N(C)C)nc4)cc32)CC1` [Compound G-8], the negative logarithm of the IC50 (pIC50) at EZH2 Y641F is 7.40; with Pfeiffer cells it was 6.49.

Turning to `C=CCC1(S(=O)(=O)n2cc(C)c3c(C(=O)NCc4c(C)cc(C)[nH]c4=O)cc(-c4cnc(N5CCN(C)CC5)nc4)cc32)CC1` [Compound G-13], the pIC50 on EZH2 Y641F is 7.89; with Pfeiffer cells, 7.12.

For the compound `C=CCC1(S(=O)(=O)N2CC(C)c3c(C(=O)NCc4c(C)cc(C)[nH]c4=O)cc(-c4ccc(CN(C)C)cc4)cc32)CC1` (centres unmarked) [Compound G-75], the pIC50 at EZH2 Y641F was 6.55; with Pfeiffer cells, 5.74.

For `C=CCC1(S(=O)(=O)n2cc(C)c3c(C(=O)NCc4c(C)cc(C)[nH]c4=O)cc(-c4cnc(N5CCNCC5)nc4)cc32)CC1` [Compound G-65], the negative-log IC50 (pIC50) on EZH2 Y641F was 7.77; in the assay with Pfeiffer cells, 6.77.

Regarding `C=CCC1(S(=O)(=O)n2cc(C)c3c(C(=O)NCc4c(C)cc(C)[nH]c4=O)cc(-c4ccc(OCCCN(C)C)cc4)cc32)CC1` [Compound G-11], the pIC50 at EZH2 Y641F is 7.49.

For `C=CCC1(S(=O)(=O)n2cc(C)c3c(C(=O)NCc4c(C)cc(C)[nH]c4=O)cc(-c4ccc(N5CCOCC5)nc4)cc32)CC1` [Compound G-12], the pIC50 on EZH2 Y641F was 7.24; with Pfeiffer cells, 6.31.

Consider `C=CCC1(S(=O)(=O)n2cc(C)c3c(C(=O)NCc4c(C)cc(C)[nH]c4=O)cc(-c4ccc(N)nc4)cc32)CC1` [Compound G-9], for which the pIC50 at EZH2 Y641F is 7.46; in the assay on Pfeiffer cells it was 6.35.

For `C=CCC1(S(=O)(=O)n2cc(C)c3c(C(=O)NCc4c(C)cc(C)[nH]c4=O)cc(-c4ccc(CN(C)C)cc4F)cc32)CC1` [Compound G-15], the values for the pIC50 at EZH2 Y641F and in the assay with Pfeiffer cells were 7.60 and 6.66, respectively.

Turning to `C=CCC1(S(=O)(=O)n2cc(C)c3c(C(=O)NCc4c(C)cc(C)[nH]c4=O)cc(-c4cccnc4)cc32)CC1` [Compound G-7], the negative-log IC50 (pIC50) is 7.48 on EZH2 Y641F and 6.42 with Pfeiffer cells.

For `C=CCC1(S(=O)(=O)n2cc(C)c3c(C(=O)NCc4c(C)cc(C)[nH]c4=O)cc(-c4ccc(CCN5CCOCC5)nc4)cc32)CC1` [Compound G-3], the figures for the negative logarithm of the IC50 (pIC50) at EZH2 Y641F and in the assay with Pfeiffer cells were 7.55 and 6.52, respectively.

Turning to `C=CCC1(S(=O)(=O)n2cc(C)c3c(C(=O)NCc4c(C)cc(C)[nH]c4=O)cc(-c4ccc(N5CCN(C(C)C)CC5)nc4)cc32)CC1` [Compound G-48, 1-(1-allylcyclopropylsulfonyl)-N-((4,6-dimethyl-2-oxo-1,2-dihydropyridin-3-yl)methyl)-6-(6-(4-isopropylpiperazin-1-yl)pyridin-3-yl)-3-methyl-1H-indole-4-carboxamide], the pIC50 at EZH2 Y641F was 7.55; with Pfeiffer cells (Homo sapiens, 144 h) it was 6.68.

`C=CCC1(S(=O)(=O)N2CCc3c(C(=O)NCc4c(C)cc(C)[nH]c4=O)cc(-c4ccc(N5CCN(C)CC5)nc4)cc32)CC1` [Compound G-76]: the pIC50 on EZH2 Y641F was 6.34; in the assay on Pfeiffer cells it was 5.59.

For the compound `C=CCC1(S(=O)(=O)n2cc(C)c3c(C(=O)NCc4c(C)cc(C)[nH]c4=O)cc(-c4ccc(CN(C)C)c(F)c4)cc32)CC1` [Compound G-16], the results for the negative logarithm of the IC50 (pIC50) on EZH2 Y641F and with Pfeiffer cells were 7.64 and 6.47, respectively.

For `C=CCC1(S(=O)(=O)n2cc(C)c3c(C(=O)NCc4c(OC)cc(C)[nH]c4=O)cc(N4CCN(C)CC4)cc32)CC1` [Compound G-69], on EZH2 Y641F, the pIC50 is 7.59.

On to `C=CCC1(S(=O)(=O)n2cc(C)c3c(C(=O)NCc4c(C)cc(C)[nH]c4=O)cc(-c4ccc(CN(C)C)cc4)cc32)CC1` [Compound G-4], for which the pIC50 on EZH2 Y641F is 7.66.

As to `C=CCC1(S(=O)(=O)n2nc(C(F)F)c3c(C(=O)NCc4c(C)cc(C)[nH]c4=O)cc(-c4ccc(N5CCN(C)CC5)nc4)cc32)CC1` [Compound G-78], the negative-log IC50 (pIC50) at EZH2 Y641F was 5.85; with Pfeiffer cells it was 5.60.

Take `C=CCC1(S(=O)(=O)n2cc(C)c3c(C(=O)NCc4c(OC)cc(C)[nH]c4=O)cc(-c4cnc(N5CCN(C(C)C)CC5)nc4)cc32)CC1` [Compound G-67]: the negative-log IC50 (pIC50) at EZH2 Y641F is 8.15; in the assay on Pfeiffer cells (Homo sapiens, 144 h), 7.66.

On to `C=CCC1(S(=O)(=O)n2cc(C)c3c(C(=O)NCc4c(C)cc(C)[nH]c4=O)cc(-c4ccc(CN(C)C)cc4F)cc32)CC1` [Compound G-18], for which the results for the pIC50 at EZH2 Y641F and with Pfeiffer cells were 7.38 and 6.43, respectively.

On to `C=CCC1(S(=O)(=O)n2cc(OC)c3c(C(=O)NCc4c(C)cc(C)[nH]c4=O)cc(-c4ccc(N5CCN(C)CC5)nc4)cc32)CC1` [Compound G-14], for which the negative logarithm of the IC50 (pIC50) on EZH2 Y641F is 8.30; in the assay with Pfeiffer cells, 7.57.

Regarding `C=CCC1(S(=O)(=O)n2cc(C)c3c(C(=O)NCc4c(OC)cc(C)[nH]c4=O)cc(-c4ccc(N)nc4)cc32)CC1` [Compound G-36], the pIC50 was 7.80 on EZH2 Y641F and 7.07 in the assay on Pfeiffer cells.

With `C=CCC1(S(=O)(=O)n2cc(C)c3c(C(=O)NCc4c(OC(F)F)cc(C)[nH]c4=O)cc(-c4ccc(N5CCN(C)CC5)nc4)cc32)CC1` [Compound G-68], the negative-log IC50 (pIC50) on EZH2 Y641F is 7.47; in the assay on Pfeiffer cells, 6.82.

In the case of `C=CCC1(S(=O)(=O)n2cc(C)c3c(C(=O)NCc4c(C)cc(C)[nH]c4=O)cc(-c4ccc(C#N)nc4)cc32)CC1` [Compound G-10], the pIC50 on EZH2 Y641F is 7.39.

In the case of `Cc1cc(C)c(CNC(=O)c2cc(-c3ccc(N4CCN(C)CC4)nc3)cc3c2CCN3S(=O)(=O)C(C)C)c(=O)[nH]1` [Compound G-47, N-((4,6-dimethyl-2-oxo-1,2-dihydropyridin-3-yl)methyl)-1-(isopropylsulfonyl)-6-(6-(4-methylpiperazin-1-yl)pyridin-3-yl)dihydroindole-4-carboxamide], the pIC50 at EZH2 Y641F is 6.80; in the assay with Pfeiffer cells, 5.69.

Turning to `C=CCC1(S(=O)(=O)n2cc(C)c3c(C(=O)NCc4c(C)cc(C)[nH]c4=O)cc(-c4cnc(N5CC(F)C5)nc4)cc32)CC1` [Compound G-24], the values for the pIC50 on EZH2 Y641F and in the assay on Pfeiffer cells were 7.49 and 7.22, respectively.

For `C=CCC1(S(=O)(=O)n2nc(C)c3c(C(=O)NCc4c(C)cc(C)[nH]c4=O)cc(-c4ccc(N5CCN(C)CC5)nc4)cc32)CC1` [Compound G-79], the pIC50 on EZH2 Y641F is 6.23; in the assay with Pfeiffer cells, 5.55.

`C=CCC1(S(=O)(=O)n2cc(C)c3c(C(=O)NCc4c(C)cc(C)[nH]c4=O)cc(-c4ccc(CN(C)C)cc4)cc32)CC1` [Compound G-6]: the results for the pIC50 at EZH2 Y641F and with Pfeiffer cells were 7.72 and 6.45, respectively.

On to `C=CCC1(S(=O)(=O)n2cc(C)c3c(C(=O)NCc4c(C)cc(C)[nH]c4=O)cc(-c4ccc(OCCN(C)C)cc4)cc32)CC1` [Compound G-5], for which the pIC50 is 7.77 at EZH2 Y641F and 6.37 in the assay with Pfeiffer cells.

For the compound `C=CCC1(S(=O)(=O)n2cc(C)c3c(C(=O)NCc4c(OC)cc(C)[nH]c4=O)cc(-c4ccc(CN(C)C)cc4)cc32)CC1` [Compound G-32], the negative-log IC50 (pIC50) on EZH2 Y641F was 8.10; in the assay on Pfeiffer cells, 7.10.

Turning to `C=CCC1(S(=O)(=O)N2CC(C)c3c(C(=O)NCc4c(C)cc(C)[nH]c4=O)cc(-c4ccc(N5CCN(C)CC5)nc4)cc32)CC1` (centres unmarked) [Compound G-77], the negative logarithm of the IC50 (pIC50) on EZH2 Y641F is 6.83; in the assay on Pfeiffer cells it was 5.82.

Consider `C#CCCS(=O)(=O)n1cc(C)c2c(C(=O)NCc3c(OC)cc(C)[nH]c3=O)cc(-c3ccc(N4CCN(C)CC4)nc3)cc21` [Compound G-81], for which the negative logarithm of the IC50 (pIC50) at EZH2 Y641F was 6.71; in the assay on Pfeiffer cells, 5.42.

With `C=CCC1(S(=O)(=O)n2cc(C)c3c(C(=O)NCc4c(C)cc(C)[nH]c4=O)cc(-c4ccc(F)c(CN(C)C)c4)cc32)CC1` [Compound G-21], the negative logarithm of the IC50 (pIC50) at EZH2 Y641F is 7.43.

The values are drawn from patent publication US10793549B2, “Sulfuryl-substituted benzoheterocyclic derivative, preparation method and medical use thereof” (SHANGHAI HAIYAN PHARMACEUTICAL TECHNOLOGY CO., LTD., priority 2016, dated 2020).
